Assay results reported in ChEMBL document CHEMBL3414448, “Advances in the discovery of novel antimicrobials targeting the assembly of bacterial cell division protein FtsZ” (Eur J Med Chem, 2015).
In brackets after ≈: the same amount, converted by molar mass.

What was measured:
[1] = target: T1, Cell division protein FtsZ (Escherichia coli K-12, UniProt P0A9A6); test: Inhibition of Escherichia coli FtsZ GTPase activity
T1 sequence (P0A9A6 whole entry): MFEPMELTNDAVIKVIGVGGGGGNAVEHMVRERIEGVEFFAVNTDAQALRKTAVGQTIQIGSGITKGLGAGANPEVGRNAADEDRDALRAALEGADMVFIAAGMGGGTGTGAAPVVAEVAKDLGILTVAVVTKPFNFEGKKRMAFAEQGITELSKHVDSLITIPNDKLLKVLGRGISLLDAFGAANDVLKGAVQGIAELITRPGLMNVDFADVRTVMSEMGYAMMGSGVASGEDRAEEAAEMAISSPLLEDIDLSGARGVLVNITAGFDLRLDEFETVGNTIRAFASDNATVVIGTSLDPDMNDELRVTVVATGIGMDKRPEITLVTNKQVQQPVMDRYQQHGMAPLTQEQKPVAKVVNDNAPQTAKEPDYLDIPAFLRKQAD

[2] = tested on: Staphylococcus aureus; test: Antimicrobial activity against Staphylococcus aureus; assay type: functional
[3] = tested on: Bacillus subtilis; test: Antimicrobial activity against Bacillus subtilis; assay type: functional
[4] = tested on: Pseudomonas aeruginosa; test: Antimicrobial activity against Pseudomonas aeruginosa ATCC 27853; assay type: functional
[5] = tested on: Enterobacter cloacae; test: Antimicrobial activity against multidrug-resistant Enterobacter cloacae 12161389; assay type: functional
[6] = tested on: Streptococcus pneumoniae; test: Antimicrobial activity against Streptococcus pneumoniae ATCC 49619; assay type: functional
[7] = tested on: Enterococcus faecalis; test: Antimicrobial activity against Enterococcus faecalis ATCC 29212; assay type: functional
[8] = tested on: Escherichia coli; test: Antimicrobial activity against Escherichia coli ATCC 35218; assay type: functional
[9] = tested on: Bacillus subtilis; test: Antimicrobial activity against Bacillus subtilis 168; assay type: functional
[10] = tested on: Enterococcus faecium; test: Antimicrobial activity against ampicillin-resistant and levofloxacin-resistant Enterococcus faecium 12160560; assay type: functional
[11] = tested on: Acinetobacter baumannii; test: Antimicrobial activity against multidrug-resistant Acinetobacter baumannii 12159796; assay type: functional
[12] = tested on: Staphylococcus aureus; test: Antimicrobial activity against methicillin-sensitive Staphylococcus aureus ATCC 29213; assay type: functional
[13] = tested on: Klebsiella pneumoniae; test: Antimicrobial activity against ESBL producing Klebsiella pneumoniae ATCC 700603; assay type: functional
[14] = target: T2, Cell division protein FtsZ (Bacillus subtilis (strain 168), UniProt P17865); test: Binding affinity to Bacillus subtilis FtsZ
T2 sequence (P17865 whole entry): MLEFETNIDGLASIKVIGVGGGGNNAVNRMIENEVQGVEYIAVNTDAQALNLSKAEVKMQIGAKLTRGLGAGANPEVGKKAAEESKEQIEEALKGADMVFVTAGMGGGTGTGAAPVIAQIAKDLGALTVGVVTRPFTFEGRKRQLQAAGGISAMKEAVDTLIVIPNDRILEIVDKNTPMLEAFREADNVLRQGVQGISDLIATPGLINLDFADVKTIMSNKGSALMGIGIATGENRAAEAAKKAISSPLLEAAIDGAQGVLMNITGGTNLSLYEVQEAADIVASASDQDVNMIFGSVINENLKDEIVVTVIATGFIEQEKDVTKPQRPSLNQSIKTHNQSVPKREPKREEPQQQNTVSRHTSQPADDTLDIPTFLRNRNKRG

[15] = tested on: HeLa; test: Cytotoxicity against human HeLa cells; assay type: cell-based
[16] = tested on: Escherichia coli; test: Antimicrobial activity against Escherichia coli; assay type: functional
[17] = tested on: Staphylococcus aureus; test: Antimicrobial activity against methicillin-resistant Staphylococcus aureus; assay type: functional
[18] = tested on: Bacillus subtilis; test: Antimicrobial activity against Bacillus subtilis relative to control; assay type: functional
[19] = tested on: Escherichia coli; test: Antimicrobial activity against Escherichia coli relative to control; assay type: functional
[20] = target: T1, Cell division protein FtsZ; test: Inhibition of Escherichia coli FtsZ polymerization
[21] = Inhibition of FtsZ (unknown origin) assessed as reduction in enzyme GTPase activity
[22] = tested on: Mycobacterium tuberculosis; test: Antimicrobial activity against Mycobacterium tuberculosis; assay type: functional
[23] = target: T3, Cell division protein FtsZ (Mycobacterium tuberculosis, UniProt P9WN95); test: Binding affinity to Mycobacterium tuberculosis FtsZ
T3 sequence (P9WN95 whole entry): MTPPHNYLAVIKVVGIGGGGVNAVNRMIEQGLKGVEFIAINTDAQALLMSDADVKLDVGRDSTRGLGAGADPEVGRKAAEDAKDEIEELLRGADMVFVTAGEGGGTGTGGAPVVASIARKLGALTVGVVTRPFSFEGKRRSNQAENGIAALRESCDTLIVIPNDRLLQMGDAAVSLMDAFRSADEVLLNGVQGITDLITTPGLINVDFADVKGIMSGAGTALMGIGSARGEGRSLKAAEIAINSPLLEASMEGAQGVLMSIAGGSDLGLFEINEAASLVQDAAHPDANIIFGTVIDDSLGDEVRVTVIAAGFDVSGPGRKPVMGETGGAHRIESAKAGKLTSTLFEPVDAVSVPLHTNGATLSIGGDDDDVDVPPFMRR

[24] = tested on: Pseudomonas fluorescens; test: Antimicrobial activity against Pseudomonas fluorescens; assay type: functional
[25] = Inhibition of FtsZ (unknown origin) assessed as reduction in enzyme assembly
[26] = tested on: Staphylococcus aureus; test: Antimicrobial activity against Staphylococcus aureus UAMS1; assay type: functional
[27] = tested on: Staphylococcus aureus; test: Antimicrobial activity against community acquired methicillin-resistant Staphylococcus aureus USA300-LAC; assay type: functional
[28] = tested on: Enterococcus; test: Antimicrobial activity against […]-resistant Enterococcus; assay type: functional
[29] = tested on: Staphylococcus aureus; test: Antimicrobial activity against multidrug-resistant Staphylococcus aureus; assay type: functional
[30] = target: T1, Cell division protein FtsZ; test: Inhibition of Escherichia coli FtsZ
[31] = Selectivity index, ratio of IC50 for human HeLa cells to MIC for Staphylococcus aureus MR12160636
[32] = tested on: Staphylococcus; test: Antimicrobial activity against Staphylococcus; assay type: functional
[33] = tested on: Enterococcus faecium; test: Antimicrobial activity against Enterococcus faecium; assay type: functional
[34] = tested on: Enterococcus faecalis; test: Antimicrobial activity against Enterococcus faecalis; assay type: functional
[35] = tested on: Staphylococcus; test: Antimicrobial activity against Staphylococcus relative to PC190723; assay type: functional
[36] = Half life in 100% filtered mouse serum; assay type: ADME
[37] = Half life in staphylococcal growth media
[38] = target: T1, Cell division protein FtsZ; test: Binding affinity to Escherichia coli FtsZ by fluorescence anisotrophy

O=C1C[C@@H](c2ccccc2)Oc2c(Cc3cc(Cc4ccccc4O)ccc3O)c(O)c(Cc3cc(Cc4ccccc4O)ccc3O)c(O)c21
IC50 [1]: 8.3 µM
MIC [2]: 1.16 µg/mL (≈ 1.7 µM)
MIC [3]: 1.77 µg/mL (≈ 2.6 µM)

O=C(Oc1cc(OC(=O)c2cc(O)cc(O)c2)c2ccccc2c1)c1cc(O)c(O)c(O)c1
MIC [4]: 64 µg/mL (≈ 143 µM)
MIC [5]: 128 µg/mL (≈ 285 µM)
MIC [6]: 32 µg/mL (≈ 71.4 µM)
MIC [7]: 32 µg/mL (≈ 71.4 µM)
MIC [8]: 128 µg/mL (≈ 285 µM)
MIC [9]: 16 µg/mL (≈ 35.7 µM)
MIC [10]: 32 µg/mL (≈ 71.4 µM)
MIC [11]: 64 µg/mL (≈ 143 µM)
MIC [12]: 16 µg/mL (≈ 35.7 µM)
MIC [13]: 128 µg/mL (≈ 285 µM)

O=C1NC(=S)S/C1=C/c1ccc(-c2cccc(C(F)(F)F)c2)o1
Kd [14]: 1.5 µM
GI50 [3]: 2 µM
IC50 [15]: 18.1 µM

O=C/C=C/c1ccccc1 [CINNAMALDEHYDE]
MIC [16]: 1 µg/mL (≈ 7.57 µM)
MIC [17]: 0.25 µg/mL (≈ 1.89 µM)
MIC [18]: 500 µg/mL (≈ 3780 µM)
IC50 [1]: 5.81 µM
MIC [19]: 1000 µg/mL (≈ 7570 µM)
IC50 [20]: 6.86 µM
MIC [3]: 0.5 µg/mL (≈ 3.78 µM)

CCC(CC)c1cc([C@H]2CN3CC[C@H]2C[C@@H]3CNCc2ccc(CO)o2)nc(-c2ccncc2)n1
MIC [16]: 36 µg/mL (≈ 75.7 µM)
IC50 [21]: 73.2 µM
MIC [2]: 24 µg/mL (≈ 50.5 µM)

O=C(Oc1cc(OC(=O)c2cc(O)c(O)c(O)c2)c2ccccc2c1)c1cc(O)c(O)c(O)c1
MIC [4]: 128 µg/mL (≈ 276 µM)
MIC [5]: 128 µg/mL (≈ 276 µM)
MIC [6]: 64 µg/mL (≈ 138 µM)
MIC [7]: 64 µg/mL (≈ 138 µM)
MIC [8]: 128 µg/mL (≈ 276 µM)
MIC [9]: 64 µg/mL (≈ 138 µM)
MIC [10]: 64 µg/mL (≈ 138 µM)
MIC [11]: 64 µg/mL (≈ 138 µM)
MIC [12]: 32 µg/mL (≈ 68.9 µM)
MIC [13]: 128 µg/mL (≈ 276 µM)

CC(C)c1c(O)ccc2c1CC[C@H]1C(C)(C)CCC[C@]21C [TOTAROL]
MIC [16]: > 400 µg/mL
IC50 [21]: 40.8 µM
MIC [9]: 0.6 µg/mL (≈ 2.09 µM)
MIC [22]: 16 µg/mL (≈ 55.9 µM)
MIC [2]: 1.5 µg/mL (≈ 5.24 µM)
Kd [23]: 11 µM

COc1ccc(/N=C/c2ccc(OC(C)=O)c(OC)c2[N+](=O)[O-])cc1
MIC [24]: 1.56 µg/mL (≈ 4.53 µM)
MIC [16]: 1.56 µg/mL (≈ 4.53 µM)
MIC [2]: 1.56 µg/mL (≈ 4.53 µM)
MIC [3]: 1.56 µg/mL (≈ 4.53 µM)

COc1c(OC(C)=O)ccc(/C=N/c2c(C(C)C)cccc2C(C)C)c1[N+](=O)[O-]
MIC [24]: 6.25 µg/mL (≈ 15.7 µM)
MIC [16]: 6.25 µg/mL (≈ 15.7 µM)
MIC [2]: 6.25 µg/mL (≈ 15.7 µM)
MIC [3]: 6.25 µg/mL (≈ 15.7 µM)

CCC(CC)c1cc([C@H]2CN3CC[C@H]2C[C@@H]3CN)nc(-c2ccncc2)n1
MIC [16]: 18 µg/mL (≈ 49.2 µM)
IC50 [21]: 37.5 µM
MIC [2]: 9 µg/mL (≈ 24.6 µM)

COc1ccc2cc3[n+](cc2c1OC)CCc1cc2c(cc1-3)OCO2 [BERBERINE]
IC50 [25]: 10 µM
IC50 [21]: 16 µM

COc1cc(C/C=C(/Cl)Cc2cc(O)cc(O)c2)c(OC)cc1Cl
MIC [26]: 1 µg/mL (≈ 2.71 µM)
IC50 [1]: 37 µM
MIC [27]: 1 µg/mL (≈ 2.71 µM)

Oc1cc(O)c2c(c1)C/C(Cl)=C\Cc1cc(c(Cl)cc1O)Oc1c(O)cc(cc1O)C/C(Cl)=C\Cc1cc(c(Cl)cc1O)O2
MIC [28]: 2.9 µg/mL (≈ 4.28 µM)
MIC [17]: 1.5 µg/mL (≈ 2.21 µM)
MIC [29]: 1.3 µg/mL (≈ 1.92 µM)

CN(C)CCNc1nc(/C=C/c2ccc(Cl)cc2)nc2cc3ccccc3cc12
IC50 [30]: 12 µM

O=C1C[C@@H](c2ccccc2)Oc2c(Cc3ccccc3O)c(O)c(Cc3ccccc3O)c(O)c21 [DICHAMANETIN]
IC50 [1]: 12.5 µM
MIC [2]: 0.8 µg/mL (≈ 1.71 µM)
MIC [3]: 5.01 µg/mL (≈ 10.7 µM)

O=C(Oc1cc(OC(=O)c2ccc(O)c(Cl)c2)c2ccccc2c1)c1ccc(O)c(Cl)c1
MIC [4]: 64 µg/mL (≈ 136 µM)
Ratio [31]: 5
MIC [5]: 128 µg/mL (≈ 273 µM)
MIC [6]: 32 µg/mL (≈ 68.2 µM)
MIC [7]: 2 µg/mL (≈ 4.26 µM)
MIC [8]: 128 µg/mL (≈ 273 µM)
MIC [9]: 4 µg/mL (≈ 8.52 µM)
MIC [10]: 4 µg/mL (≈ 8.52 µM)
MIC [11]: 32 µg/mL (≈ 68.2 µM)
MIC [12]: 8 µg/mL (≈ 17 µM)
MIC [13]: 128 µg/mL (≈ 273 µM)

NC(=O)c1c(F)ccc(OCc2nc3cc(Cl)cnc3s2)c1F
MIC [32]: 0.5 µg/mL (≈ 1.41 µM)

Cc1nc(-c2cccs2)cc([C@H]2CN3CC[C@H]2C[C@@H]3CNC(=O)CCCC(=O)O)n1
MIC [16]: 192 µg/mL (≈ 449 µM)
IC50 [21]: 317 µM
MIC [2]: 384 µg/mL (≈ 897 µM)

Oc1cc(O)cc(C/C(Cl)=C\Cc2cc(O)c(Cl)cc2O)c1
MIC [26]: 1 µg/mL (≈ 2.93 µM)
MIC [27]: 1 µg/mL (≈ 2.93 µM)

COC(=O)CC1Cc2cc3cc(OC)c(-c4c(OC)cc5cc6c(c(O)c5c4O)C(=O)OC(CC(=O)OC)C6)c(O)c3c(O)c2C(=O)O1 (stereo not given) [VIRIDITOXIN]
MIC [33]: 2 µg/mL (≈ 3.02 µM)
IC50 [1]: 10.6 µM
IC50 [20]: 12.4 µM
MIC [2]: 4 µg/mL (≈ 6.04 µM)
MIC [34]: 2 µg/mL (≈ 3.02 µM)

NC(=O)c1c(F)ccc(O[C@H](CO)c2nc(-c3ccc(C(F)(F)F)cc3)c(Br)o2)c1F
MIC [32]: 0.12 µg/mL (≈ 0.237 µM)
Ratio [35]: 4

CN1CCC(C(=O)NC(=O)c2c(F)ccc(OCc3nc4cc(Cl)cnc4s3)c2F)CC1
half-life [36]: 3.4 min
half-life [37]: 8.2 h

CCC(CC)c1cc([C@H]2CN3CC[C@H]2C[C@@H]3CNCc2ccco2)nc(-c2ccncc2)n1
MIC [16]: 72 µg/mL (≈ 162 µM)
IC50 [21]: 55.7 µM
MIC [2]: 12 µg/mL (≈ 26.9 µM)

N=C(N)c1ccc(-c2cc3ccc(C(=N)N)cc3[nH]2)cc1 [DAPI]
Kd [38]: 16.6 µM
